In PubChem BioAssay (NCI):
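Each compound was tested at five concentrations against cells in 96-well plates for 48 hours. GI50 is the concentration that inhibits growth by half. TGI denotes the concentration required for complete inhibition of growth.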

Assays:
Assay in all cases: inhibition of tumour cell growth, NCI panel, 48 h
OVCAR-4 ovarian = system: OVCAR-4 ovarian
RXF 393 renal = system: RXF 393 renal
MDA-MB-231 breast = system: MDA-MB-231 breast
UACC-257 melanoma = system: UACC-257 melanoma
HOP-92 NSCLC = system: HOP-92 NSCLC
NCI-H460 lung = system: NCI-H460 lung
SF-295 CNS = system: SF-295 CNS
LOX IMVI melanoma = system: LOX IMVI melanoma
HT29 colon = system: HT29 colon
A549 NSCLC = system: A549 NSCLC

Row | SMILES | GI50 (OVCAR-4 ovarian) | TGI (OVCAR-4 ovarian) | GI50 (RXF 393 renal) | TGI (RXF 393 renal) | GI50 (MDA-MB-231 breast) | TGI (MDA-MB-231 breast) | GI50 (UACC-257 melanoma) | TGI (UACC-257 melanoma) | GI50 (HOP-92 NSCLC) | TGI (HOP-92 NSCLC) | GI50 (NCI-H460 lung) | TGI (NCI-H460 lung) | GI50 (SF-295 CNS) | TGI (SF-295 CNS) | TGI (LOX IMVI melanoma) | TGI (HT29 colon) | TGI (A549 NSCLC) | GI50 (LOX IMVI melanoma) | GI50 (HT29 colon) | GI50 (A549 NSCLC)
1 | COc1ccc(-c2ccc(-c3ccc(C(=N)N)nc3)s2)cc1 | 1.79 µM | 3.3 µM | 1.77 µM | 3.34 µM | 1.75 µM | 3.28 µM | 1.8 µM | 3.51 µM | 1.5 µM | 3.07 µM | 0.524 µM | 1.82 µM | 1.71 µM | 3.1 µM | – | – | – | – | – | –
2 | O=C(NO)c1ccc([N+](=O)[O-])cc1 | – | – | – | 71.8 µM | – | – | – | > 100 µM | – | – | – | > 100 µM | – | > 100 µM | > 100 µM | > 100 µM | > 100 µM | – | – | –
3 | N#CC(C#N)=CN1CCN(C(=O)c2ccco2)C1=S | 20.1 µM | 46 µM | 2.63 µM | 6.6 µM | 2.92 µM | 17.3 µM | – | – | 22.4 µM | > 100 µM | 3.29 µM | > 100 µM | 31.3 µM | > 100 µM | > 100 µM | > 100 µM | 47.7 µM | 3.34 µM | 27.7 µM | 13.5 µM
4 | O=C(O)C(=C\c1ccc2c(c1)OCO2)/C(=C/c1ccc2c(c1)OCO2)C(=O)O | – | > 100 µM | – | > 100 µM | – | – | – | > 100 µM | – | > 100 µM | – | > 100 µM | – | > 100 µM | > 100 µM | > 100 µM | – | – | – | –
5 | Cc1c(C#N)c2nnn(C)c(=O)n2c1-c1ccccc1 | – | > 100 µM | – | > 100 µM | – | > 100 µM | – | > 100 µM | – | > 100 µM | – | > 100 µM | – | > 100 µM | – | – | > 100 µM | – | – | –
